# Results reported in ChEMBL document CHEMBL5137088 (J Med Chem, 2022).
# pIC50: −log10 of the molar value.
# Legend:
# [1] = in vitro; settings: dog, MDCK cells
# [2] = in vitro; settings: chicken, chick embryo fibroblast cells
# [3] = Acute toxicity in 12 hrs fasted Kunming mouse assessed as clonic convulsion at 1000 mg/kg, po measured for 1 week; format: organism-based; settings: in vivo, 168 h, time 1 weeks
# [4] = Subacute toxicity in 12 hrs fasted Kunming mouse assessed as side effect at 50 mg/kg, iv administered once every two days for 2 weeks; format: organism-based; settings: in vivo
# [5] = target: Cytochrome P450 2D6 (Homo sapiens, UniProt P10635)
# [6] = target: T1, Cytochrome P450 1A2 (Homo sapiens, UniProt P05177)
# T1 sequence (P05177 whole entry): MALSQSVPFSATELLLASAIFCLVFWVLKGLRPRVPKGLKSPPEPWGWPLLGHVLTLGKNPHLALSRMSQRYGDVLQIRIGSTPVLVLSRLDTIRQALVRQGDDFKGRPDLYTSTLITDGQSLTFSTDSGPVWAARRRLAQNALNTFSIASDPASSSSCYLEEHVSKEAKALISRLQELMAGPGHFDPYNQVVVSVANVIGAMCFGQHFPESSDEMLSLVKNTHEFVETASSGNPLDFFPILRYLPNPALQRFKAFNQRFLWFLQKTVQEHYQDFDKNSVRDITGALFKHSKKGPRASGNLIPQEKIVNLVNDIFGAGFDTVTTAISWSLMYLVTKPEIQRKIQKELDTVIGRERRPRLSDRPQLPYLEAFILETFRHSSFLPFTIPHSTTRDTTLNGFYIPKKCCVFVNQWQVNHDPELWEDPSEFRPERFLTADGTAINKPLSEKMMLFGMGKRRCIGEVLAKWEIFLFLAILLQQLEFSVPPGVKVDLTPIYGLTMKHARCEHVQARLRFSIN
# [7] = target: Cytochrome P450 3A4 (Homo sapiens, UniProt P08684); format: ADME, microsomes, Liver, Microsome
# [8] = Subacute toxicity in 12 hrs fasted Kunming mouse assessed as animal death at 50 mg/kg, po administered once every two days for 2 weeks; format: organism-based; settings: in vivo
# [9] = Volume of distribution at steady state in Sprague-Dawley rat at 2 mg/kg, iv measured upto 12 hrs by LC-MS/MS analysis; format: ADME, organism-based; settings: in vivo, read-out: Vdss
# [10] = target: Cytochrome P450 2C19 (Homo sapiens, UniProt P33261); format: ADME, microsomes, Liver, Microsome
# [11] = in vitro; settings: human, human liver (fraction not stated)
# [12] = Tmax in Sprague-Dawley rat at 2 mg/kg, iv measured upto 12 hrs by LC-MS/MS analysis; format: ADME, organism-based; settings: in vivo
# [13] = Subacute toxicity in 12 hrs fasted Kunming mouse assessed as poisoning symptom at 50 mg/kg, po administered once every two days for 2 weeks; format: organism-based; settings: in vivo
# [14] = Half-life in Sprague-Dawley rat at 20 mg/kg, po measured upto 12 hrs by LC-MS/MS analysis; format: ADME, organism-based; settings: in vivo
# [15] = Acute toxicity in 12 hrs fasted Kunming mouse assessed as ruffled fur at 1000 mg/kg, po measured for 1 week; format: organism-based; settings: in vivo, 168 h, time 1 weeks
# [16] = Oral bioavailability in Sprague-Dawley rat at 20 mg/kg measured upto 12 hrs by LC-MS/MS analysis; format: ADME, organism-based; settings: in vivo
# [17] = Subacute toxicity in 12 hrs fasted Kunming mouse assessed as increase in body weight at 50 mg/kg, po administered once every two days for 2 weeks relative to control; format: organism-based; settings: in vivo
# [18] = Cmax in Sprague-Dawley rat at 20 mg/kg, po measured upto 12 hrs by LC-MS/MS analysis; format: ADME, organism-based; parameters: time < 12 hrs, dose 20 mg/kg, route po; settings: in vivo
# [19] = Tmax in Sprague-Dawley rat at 20 mg/kg, po measured upto 12 hrs by LC-MS/MS analysis; format: ADME, organism-based; settings: in vivo
# [20] = in vitro; settings: human, liver microsomes
# [21] = in vitro; settings: human, human liver (fraction not stated); remark: listed apart in the source
# [22] = Cmax in Sprague-Dawley rat at 2 mg/kg, iv measured upto 12 hrs by LC-MS/MS analysis; format: ADME, organism-based; parameters: time < 12 hrs, dose 2 mg/kg, route iv; settings: in vivo
# [23] = Half-life in Sprague-Dawley rat at 2 mg/kg, iv measured upto 12 hrs by LC-MS/MS analysis; format: ADME, organism-based; settings: in vivo
# [24] = in vitro; settings: human, Caco-2
# [25] = Clearance in Sprague-Dawley rat at 2 mg/kg, iv measured upto 12 hrs by LC-MS/MS analysis; format: ADME, organism-based; settings: in vivo
# [26] = Subacute toxicity in 12 hrs fasted Kunming mouse assessed as animal death at 50 mg/kg, iv administered once every two days for 2 weeks; format: organism-based; settings: in vivo
# [27] = Acute toxicity in 12 hrs fasted Kunming mouse assessed as lethargy at 1000 mg/kg, po measured for 1 week; format: organism-based; settings: in vivo, 168 h, time 1 weeks
# [28] = target: Cytochrome P450 2C9 (Homo sapiens, UniProt P11712); format: ADME, microsomes, Liver, Microsome
# [29] = Acute toxicity in 12 hrs fasted Kunming mouse assessed as animal death at 1000 mg/kg, po measured for 1 week; format: organism-based; settings: in vivo, 168 h, time 1 weeks
# Cytochrome P450 2C19, sequence (P33261 whole entry): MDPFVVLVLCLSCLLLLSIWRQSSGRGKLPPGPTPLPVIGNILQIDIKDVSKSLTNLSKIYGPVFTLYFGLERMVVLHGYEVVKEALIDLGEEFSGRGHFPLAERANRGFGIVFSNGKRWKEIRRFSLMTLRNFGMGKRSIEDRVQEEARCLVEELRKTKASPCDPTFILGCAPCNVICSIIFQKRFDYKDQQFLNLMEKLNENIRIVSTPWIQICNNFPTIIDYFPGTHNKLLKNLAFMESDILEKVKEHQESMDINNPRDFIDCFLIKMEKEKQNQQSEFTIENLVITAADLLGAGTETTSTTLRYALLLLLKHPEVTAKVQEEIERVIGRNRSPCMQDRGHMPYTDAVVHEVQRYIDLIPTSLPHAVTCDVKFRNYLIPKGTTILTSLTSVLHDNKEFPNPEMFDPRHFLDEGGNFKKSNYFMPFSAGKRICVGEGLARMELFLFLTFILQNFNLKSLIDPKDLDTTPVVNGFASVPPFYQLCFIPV
# Cytochrome P450 2D6, sequence (P10635 whole entry): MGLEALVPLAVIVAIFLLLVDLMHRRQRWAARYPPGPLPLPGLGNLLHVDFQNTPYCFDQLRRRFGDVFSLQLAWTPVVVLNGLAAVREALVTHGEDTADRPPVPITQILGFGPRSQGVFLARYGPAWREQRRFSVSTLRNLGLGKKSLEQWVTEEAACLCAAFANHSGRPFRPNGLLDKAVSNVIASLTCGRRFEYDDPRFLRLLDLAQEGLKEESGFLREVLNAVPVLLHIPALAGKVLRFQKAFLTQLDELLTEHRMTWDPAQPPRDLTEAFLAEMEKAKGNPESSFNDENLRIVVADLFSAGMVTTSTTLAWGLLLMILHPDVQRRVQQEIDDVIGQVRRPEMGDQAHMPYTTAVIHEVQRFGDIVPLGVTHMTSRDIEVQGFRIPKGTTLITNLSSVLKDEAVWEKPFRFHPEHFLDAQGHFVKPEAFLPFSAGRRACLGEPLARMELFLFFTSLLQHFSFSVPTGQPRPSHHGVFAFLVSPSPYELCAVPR
# Cytochrome P450 3A4, sequence (P08684 whole entry): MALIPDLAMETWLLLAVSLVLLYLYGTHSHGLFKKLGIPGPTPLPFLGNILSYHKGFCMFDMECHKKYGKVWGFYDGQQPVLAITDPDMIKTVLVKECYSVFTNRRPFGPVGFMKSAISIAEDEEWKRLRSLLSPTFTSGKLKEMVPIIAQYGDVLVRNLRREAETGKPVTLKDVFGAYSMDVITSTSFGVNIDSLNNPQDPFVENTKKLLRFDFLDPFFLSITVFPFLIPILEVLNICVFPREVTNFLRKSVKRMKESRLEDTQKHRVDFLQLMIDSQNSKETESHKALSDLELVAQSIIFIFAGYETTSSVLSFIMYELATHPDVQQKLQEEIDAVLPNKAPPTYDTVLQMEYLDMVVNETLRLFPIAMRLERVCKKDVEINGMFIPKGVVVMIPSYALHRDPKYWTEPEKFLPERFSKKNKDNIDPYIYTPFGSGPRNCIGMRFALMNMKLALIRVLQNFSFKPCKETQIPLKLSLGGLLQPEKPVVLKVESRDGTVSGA
# Cytochrome P450 2C9, sequence (P11712 whole entry): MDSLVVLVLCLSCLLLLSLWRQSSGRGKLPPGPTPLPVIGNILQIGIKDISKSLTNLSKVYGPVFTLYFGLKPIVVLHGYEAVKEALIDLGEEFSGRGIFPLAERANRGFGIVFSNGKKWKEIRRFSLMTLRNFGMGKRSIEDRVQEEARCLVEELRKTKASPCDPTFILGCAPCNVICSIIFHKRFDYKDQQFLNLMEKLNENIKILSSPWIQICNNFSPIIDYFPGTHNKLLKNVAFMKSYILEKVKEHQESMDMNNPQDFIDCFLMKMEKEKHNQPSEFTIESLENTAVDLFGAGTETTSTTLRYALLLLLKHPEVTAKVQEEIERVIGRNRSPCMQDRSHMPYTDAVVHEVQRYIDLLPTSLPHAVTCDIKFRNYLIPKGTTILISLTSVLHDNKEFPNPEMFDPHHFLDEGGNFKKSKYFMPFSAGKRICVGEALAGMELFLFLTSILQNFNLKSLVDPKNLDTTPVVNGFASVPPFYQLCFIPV
SMILES,CC50 at 48 h [1],CC50 at 48 h [2],pIC50 [5],pIC50 [6],pIC50 [7],pIC50 [10],CLint scaled at 2 h [11],half-life at 2 h [20],remaining at 60 min [21],pIC50 [28],also measured
CCC(CC)O[C@@H]1C=C(C(=O)O)C[C@H](NCc2ccc(-c3cccs3)c(Cl)c2)[C@H]1NC(C)=O,> 250 µM,> 250 µM,–,–,–,–,–,–,–,–,–
CCC(CC)O[C@@H]1C=C(C(=O)O)C[C@H](NCc2ccc(-c3cccs3)cc2OC)[C@H]1NC(C)=O,> 250 µM,> 250 µM,< 4.00,4.68,4.06,4.52,10.4 mL/min/kg,120 min,73.8%,4.38,"Activity [3]: Non-Toxic; Activity [4]: Non-Toxic; Activity [8]: Non-Toxic; Vd [9]: 0.191 L/kg; Tmax [12]: 4.98 min; Activity [13]: Non-Toxic; half-life [14]: 20.9 min; Activity [15]: Non-Toxic; bioavailability [16]: 1.5%; Activity [17]: Non-Toxic; Cmax [18]: 511 ng/mL; Tmax [19]: 20 min; Cmax [22]: 6870 ng/mL; half-life [23]: 12.8 min; Papp A→B at 2 h, 20 µM [24]: 0.0191 ×10⁻⁶ cm/s; clearance [25]: 17.7 mL/min/kg; Activity [26]: Non-Toxic; Activity [27]: Non-Toxic; Activity [29]: Non-Toxic"
CCC(CC)O[C@@H]1C=C(C(=O)O)C[C@H](NCc2c(C)cc(-c3cccs3)cc2C)[C@H]1NC(C)=O,> 250 µM,> 250 µM,–,–,–,–,–,–,–,–,–
CCC(CC)O[C@@H]1C=C(C(=O)O)C[C@H](NCc2ccc(-c3ccsc3)cc2C)[C@H]1NC(C)=O,> 250 µM,> 250 µM,–,–,–,–,–,–,–,–,–
CCC(CC)O[C@@H]1C=C(C(=O)O)C[C@H](NCc2c(C)cc(-c3ccsc3)cc2C)[C@H]1NC(C)=O,> 250 µM,> 250 µM,–,–,–,–,–,–,–,–,–
CCC(CC)O[C@@H]1C=C(C(=O)O)C[C@H](NCc2ccc(-c3ccsc3)cc2O)[C@H]1NC(C)=O,> 250 µM,> 250 µM,–,–,–,–,17.2 mL/min/kg,44.5 min,59%,–,–
CCC(CC)O[C@@H]1C=C(C(=O)O)C[C@H](NCc2ccc(-c3ccsc3)cc2OC)[C@H]1NC(C)=O,> 250 µM,> 250 µM,< 4.00,4.54,< 4.00,4.32,< 8.6 mL/min/kg,> 145 min,79.3%,4.33,"Activity [3]: Non-Toxic; Activity [4]: Non-Toxic; Activity [8]: Non-Toxic; Vd [9]: 0.179 L/kg; Tmax [12]: 4.98 min; Activity [13]: Non-Toxic; half-life [14]: 50.2 min; Activity [15]: Non-Toxic; bioavailability [16]: 1.58%; Activity [17]: Non-Toxic; Cmax [18]: 491 ng/mL; Tmax [19]: 30 min; Cmax [22]: 7200 ng/mL; half-life [23]: 12.8 min; Papp A→B at 2 h, 20 µM [24]: 0.0262 ×10⁻⁶ cm/s; clearance [25]: 17.2 mL/min/kg; Activity [26]: Non-Toxic; Activity [27]: Non-Toxic; Activity [29]: Non-Toxic"
CCC(CC)O[C@@H]1C=C(C(=O)O)C[C@H](NCc2ccc(-c3ccsc3)cc2Cl)[C@H]1NC(C)=O,> 250 µM,> 250 µM,< 4.00,4.84,4.14,4.44,< 8.6 mL/min/kg,> 145 min,78.1%,4.50,–
CCC(CC)O[C@@H]1C=C(C(=O)O)C[C@H](NCc2ccc(-c3cccs3)cc2C)[C@H]1NC(C)=O,> 250 µM,> 250 µM,< 4.00,4.71,< 4.00,4.41,10.2 mL/min/kg,123 min,71.7%,4.36,–
CCC(CC)O[C@@H]1C=C(C(=O)O)C[C@H](NCc2ccc(-c3cccs3)cc2Cl)[C@H]1NC(C)=O,> 250 µM,> 250 µM,< 4.00,4.90,< 4.00,4.41,< 8.6 mL/min/kg,> 145 min,76.1%,4.06,–
O=C(O)Cc1ccccc1Nc1c(Cl)cccc1Cl [DICLOFENAC],–,–,–,–,–,–,225 mL/min/kg,5.5 min,–,–,–
CC(C)(C)NCC(O)COc1cccc2c1CC(O)C(O)C2 (stereo unspecified) [NADOLOL],–,–,–,–,–,–,–,–,–,–,"Papp A→B at 2 h, 20 µM [24]: 0.0491 ×10⁻⁶ cm/s"
CCC(CC)O[C@@H]1C=C(C(=O)O)C[C@H](N)[C@H]1NC(C)=O [OSELTAMIVIR CARBOXYLATE],> 250 µM,> 250 µM,–,–,–,–,28 mL/min/kg,72.4 min,40.6%,–,–
C[C@]12CC[C@H]3[C@@H](CCC4=CC(=O)CC[C@@]43C)[C@@H]1CC[C@@H]2O [TESTOSTERONE],–,–,–,–,–,–,89.7 mL/min/kg,–,5.1%,–,–
